Results published in patent US20080076824A1, “Compounds That Inhibit Replication Of Human Immunodeficiency Virus” (priority 2004, published 2008).
Where two headings read alike, the source gives them in different places. Residues, ends and D or L forms follow the SMILES beside them.

Assays:
[1] = test system: HIV-1 laboratory strains and clinical isolates; settings: wide variety of HIV-1 laboratory strains and clinical isolates; cited from earlier work
[2] = test system: Herpes simplex virus-2 (G); settings: read-out: Minimum inhibitory concentration Herpes simplex virus-2 (G); HEL; reduces virus-induced cytopathogenicity by 50%
[3] = test system: Coxsackie virus B4; assay: Antiviral activity in HeLa cell cultures, Coxsackie virus B4; type: cell-based; settings: reduces virus-induced cytopathogenicity by 50%, read-out: Minimum inhibitory concentration Coxsackie virus B4
Procedure: (§1) The cytotoxicity and antiviral activity of various concentrations of G-NH2 and GPG-NH2 were evaluated in cell cultures that were infected with various types of viruses. Conventional host cell culture, viral infection, and infectivity analysis for each different type of cell and virus were followed. Compounds that were known to inhibit replication of the particular types of viruses analyzed were used as controls.

[4] = test system: Herpes simplex virus-1 TK^− KOS ACV^r; settings: read-out: Minimum inhibitory concentration Herpes simplex virus-1 TK^− KOS ACV^r; HEL; reduces virus-induced cytopathogenicity by 50%
[5] = test system: Punta Toro virus; settings: read-out: Minimum inhibitory concentration Punta Toro virus; Vero; reduces virus-induced cytopathogenicity by 50%
[6] = test system: Coxsackie virus B4; assay: Antiviral activity in Vero cell cultures, Coxsackie virus B4; type: cell-based; settings: reduces virus-induced cytopathogenicity by 50%, read-out: Minimum inhibitory concentration Coxsackie virus B4
Procedure: as §1

[7] = Cytotoxicity / cell proliferation in CEM cells; settings: human
[8] = test system: CEM cells; assay: Cytotoxicity / cell proliferation in CEM cells
[9] = test system: Vesicular stomatitis virus; settings: read-out: Minimum inhibitory concentration Vesicular stomatitis virus; HeLa; reduces virus-induced cytopathogenicity by 50%
[10] = test system: HIV-1 (NL4.3); settings: read-out: EC50 HIV-1 NL3.4; CEM cell cultures, syncytia formation
Procedure: (§2) Human T-lymphocytic CEM cells (4.5×10^5 cells per ml) were suspended in fresh cell culture medium and infected with HIV-1 (IIIB and NL4.3) or HIV-2 (ROD or EHO) at 100 CCID50 (1 CCID50 being the virus dose infective for 50% of the cell cultures) per ml of cell suspension. Then, 100 μl of the infected cell suspension were transferred to microplate wells, mixed with 100 μl of appropriate (freshly prepared) dilutions of the test compounds (i.e., at final concentrations of […]), and were further incubated at 37° C. After 4 to 5 days, giant cell formation was recorded microscopically in the CEM cell cultures.

[11] = test system: HIV-2 (EHO); settings: read-out: EC50 HIV-2 EHO; CEM cell cultures, syncytia formation
Procedure: as §2

[12] = test system: Respiratory syncytial virus; settings: read-out: Minimum inhibitory concentration Respiratory syncytial virus; HeLa; reduces virus-induced cytopathogenicity by 50%
[13] = test system: Reovirus-1; settings: read-out: Minimum inhibitory concentration Reovirus-1; Vero; reduces virus-induced cytopathogenicity by 50%
[14] = test system: Vesicular stomatitis virus; settings: read-out: Minimum inhibitory concentration Vesicular stomatitis virus; HEL; reduces virus-induced cytopathogenicity by 50%
[15] = target: glycine oxidase from Bacillus subtilis (Bacillus subtilis, UniProt O31616)
Chain of glycine oxidase from Bacillus subtilis (O31616 whole entry): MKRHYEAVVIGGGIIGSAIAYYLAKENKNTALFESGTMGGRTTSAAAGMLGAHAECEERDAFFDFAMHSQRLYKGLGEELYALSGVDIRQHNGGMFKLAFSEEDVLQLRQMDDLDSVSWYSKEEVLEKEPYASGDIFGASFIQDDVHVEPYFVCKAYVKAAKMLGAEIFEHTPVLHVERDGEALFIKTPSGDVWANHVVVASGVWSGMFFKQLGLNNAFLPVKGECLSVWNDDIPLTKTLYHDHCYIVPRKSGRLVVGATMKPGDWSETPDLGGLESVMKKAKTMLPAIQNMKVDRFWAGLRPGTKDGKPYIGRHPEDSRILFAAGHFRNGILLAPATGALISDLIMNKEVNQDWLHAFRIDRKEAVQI

[16] = Conversion of [14C]G-NH2 by Phaseolus vulgaris root nodule extract; type: biochemical; settings: overnight, 37° C.
Procedure: An extract from Phaseolus vulgaris root nodule was prepared as follows: approximately 20 g of root nodules of 3-4 week old kidney beans (Phaseolus vulgaris) were removed, washed with potassium phosphate buffer 50 mM pH 8.0 and homogenized with 30 ml buffer. Then, the homogenate was sonicated (3×20 sec) on ice, and centrifuged for 15 min, 4° C. at 3,000 rpm. The supernatant was then centrifuged at 15,000 rpm during 20 min at 4° C., aliquoted and stored at −80° C. before use. To the reaction mixture (50 mM potassium phosphate buffer pH 8.0) was added: 0.1 μCi [^14C]G-NH2 and 50 μl extract supernatant (100%, 50% and 20%) and 50 μl buffer. The reaction proceeded overnight (˜18 hrs) at 37° C. Then, methanol was added (200 μl) to stop the reaction and the reaction mixture was subjected to cation exchange column chromatography, as described above. A reaction mixture containing bovine serum was also evaluated as a control.

[17] = Conversion of G-NH2 to modified G-NH2 by pig plasma (cation exchange HPLC); type: in vitro ADME; settings: 37° C.
Procedure: Various concentrations of G-NH2 were mixed with either 90% pig plasma or 90% dialyzed pig plasma in PBS and the reactions were conducted at 37° C. for 24 hours. Subsequently, aliquots of the mixtures were separated by cation exchange HPLC, as described previously, and the conversion of G-NH2 to modified G-NH2 was evaluated. […] Saturation of the enzyme activity of cofactor(s) in pig plasma (90% in PBS) occurred between 1,000 μM and 10,000 μM G-NH2.

SMILES	concentration range blocking HIV-1 [1] [µM]	EC50 [2] [µM]	EC50 [3] [µM]	EC50 [4] [µM]	EC50 [5] [µM]	EC50 [6] [µM]	EC50 [7] [µM]	no cytotoxicity at concentrations as high as [8] [µM]	EC50 [9] [µM]	EC50 [10] [µM]	EC50 [11] [µM]	EC50 [12] [µM]	EC50 [13] [µM]	EC50 [14] [µM]	conversion of G-NH2 to Metabolite X [15]	conversion of glycinamide to modified glycinamide [16]	conversion to modified G-NH2 (24 hr) (percent conversion) Pig plasma ([17]; 18 μM G-NH2, plasma 90% in PBS) [%]	conversion to modified G-NH2 (24 hr) (percent conversion) Pig plasma ([17]; 100 μM G-NH2, plasma 90% in PBS) [%]	conversion to modified G-NH2 (24 hr) (percent conversion) Pig plasma ([17]; 1,000 μM G-NH2, plasma 90% in PBS) [%]	conversion to modified G-NH2 (24 hr) (percent conversion) Pig plasma ([17]; 10,000 μM G-NH2, plasma 90% in PBS)
NCC(=O)N1CCC[C@H]1C(=O)NCC(N)=O [GPG-NH2, glycylprolylglycinamide] (H-Gly-Pro-Gly-NH2)	2 to 40	> 400	> 400	> 400	> 400	> 400	> 2000	1500 to 2000	> 400	50	42 ± 14	> 400	> 400	> 400	–	–	–	–	–	–
NCC(N)=O [G-NH2, glycinamide]	–	> 2000	> 2000	> 2000	> 2000	> 2000	–	–	> 2000	45 ± 7.1	37 ± 5.8	> 2000	> 2000	> 2000	unable to convert	efficiently converts glycinamide to modified glycinamide	99.7	99.7	98.7	˜24.5%
